Patent publication US11236046B2, “Substituted heterocyclic sulfonamide compounds useful as TRPA1 modulators” (Genentech, Inc., priority 2013, dated 2022)

Target: human TRPA1 (Homo sapiens (Human), UniProt O75762)
Experiment: FLIPR Tetra calcium influx assay, block of cinnamaldehyde-induced calcium influx in CHO cells expressing TRPA1 (human)
Type: cell-based
Conditions: 20 min compound incubation, 75 uM cinnamaldehyde (~EC80), Hill coefficient fixed to 1.5, read-out: hTRPA1 AUC IC50
How it was run: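 CHO cells loaded with calcium dye, preincubated with compounds 20 min at room temperature in HBSS/20 mM HEPES pH 7.4 with 0.02% BSA. Channels activated by ~EC80 cinnamaldehyde (75 uM human, 45 uM rat); block of calcium influx read on FLIPR Tetra, IC50 fitted with fixed Hill coefficient.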

Chain of human TRPA1 (O75762 whole entry): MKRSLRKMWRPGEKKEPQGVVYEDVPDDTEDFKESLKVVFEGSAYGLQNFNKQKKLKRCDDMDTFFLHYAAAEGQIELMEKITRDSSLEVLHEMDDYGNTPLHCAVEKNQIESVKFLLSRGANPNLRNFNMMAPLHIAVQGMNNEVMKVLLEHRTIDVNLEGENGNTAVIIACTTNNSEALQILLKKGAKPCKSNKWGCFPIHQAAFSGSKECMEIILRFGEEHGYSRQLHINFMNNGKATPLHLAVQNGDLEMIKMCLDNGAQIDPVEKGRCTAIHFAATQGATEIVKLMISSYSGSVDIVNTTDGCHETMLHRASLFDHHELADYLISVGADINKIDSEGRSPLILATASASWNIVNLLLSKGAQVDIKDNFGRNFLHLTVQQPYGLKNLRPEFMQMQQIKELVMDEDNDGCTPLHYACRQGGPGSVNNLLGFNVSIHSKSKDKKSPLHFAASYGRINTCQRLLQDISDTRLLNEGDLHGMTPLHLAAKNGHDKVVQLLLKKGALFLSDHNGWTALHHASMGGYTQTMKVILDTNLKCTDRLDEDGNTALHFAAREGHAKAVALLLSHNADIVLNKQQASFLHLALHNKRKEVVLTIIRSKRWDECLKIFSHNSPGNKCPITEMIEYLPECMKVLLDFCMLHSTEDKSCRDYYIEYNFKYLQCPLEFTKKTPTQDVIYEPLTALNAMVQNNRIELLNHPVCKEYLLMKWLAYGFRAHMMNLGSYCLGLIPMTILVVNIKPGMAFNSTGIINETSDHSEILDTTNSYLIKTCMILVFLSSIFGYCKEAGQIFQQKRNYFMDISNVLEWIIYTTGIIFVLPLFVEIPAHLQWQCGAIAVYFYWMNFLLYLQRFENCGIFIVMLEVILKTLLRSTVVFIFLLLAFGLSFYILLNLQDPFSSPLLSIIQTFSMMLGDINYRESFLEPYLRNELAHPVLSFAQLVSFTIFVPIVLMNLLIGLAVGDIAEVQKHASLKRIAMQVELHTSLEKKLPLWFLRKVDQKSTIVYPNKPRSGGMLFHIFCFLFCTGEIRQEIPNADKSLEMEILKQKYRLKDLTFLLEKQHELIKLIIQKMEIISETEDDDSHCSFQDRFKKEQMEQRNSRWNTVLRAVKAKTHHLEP

IC50 [nM] | Molecule
14 | O=C(NCc1cc(-c2ccc(C(F)(F)F)c(F)c2)ncn1)[C@@H]1[C@@H](F)CCN1S(=O)(=O)c1ccc(F)cc1 [Example 93, (2R,3S)-3-fluoro-N-((6-(3-fluoro-4-(trifluoromethyl)phenyl)pyrimidin-4-yl)methyl)-1-(4-fluorophenylsulfonyl)pyrrolidine-2-carboxamide]
290 | O=C(NCc1ccnc(-c2cnc(C(F)(F)F)cn2)c1)[C@@H]1C[C@@H](F)CN1S(=O)(=O)c1ccc(F)cc1 [Example 67, (2S,4R)-4-fluoro-1-(4-fluorophenyl)sulfonyl-N-[[2-[5-(trifluoromethyl)pyrazin-2-yl]-4-pyridyl]methyl]pyrrolidine-2-carboxamide]
13 | O=C(NCc1cc(-c2ccc(C(F)(F)F)nc2)c(F)cn1)[C@@H]1[C@@H](F)CCN1S(=O)(=O)c1ccc(F)cc1 [Example 115, (2R,3S)-3-fluoro-1-(4-fluorophenyl)sulfonyl-N-[[5-fluoro-4-[6-(trifluoromethyl)-3-pyridyl]-2-pyridyl]methyl]pyrrolidine-2-carboxamide]
29 | O=C(NCc1cc(-c2ccc(C(F)F)c(F)c2)ncn1)[C@@H]1C[C@@H](F)CN1S(=O)(=O)c1ccc(F)cc1 [Example 59, (2S,4R)—N-[[6-[4-(difluoromethyl)-3-fluoro-phenyl]pyrimidin-4-yl]methyl]-4-fluoro-1-(4-fluorophenyl)sulfonyl-pyrrolidine-2-carboxamide]
268 | O=C(NCc1cc(-c2ccc(C(F)(F)F)nc2)ncn1)[C@@H]1CCN1S(=O)(=O)c1ccc(F)cc1 [Example 201, (S)-1-(4-fluorophenylsulfonyl)-N-((6-(6-(trifluoromethyl)pyridin-3-yl)pyrimidin-4-yl)methyl)azetidine-2-carboxamide]
53 | O=C(NCc1cc(-c2ccc(OC(F)F)cc2)c(F)cn1)[C@@H]1C[C@@H](F)CN1S(=O)(=O)c1ccc(F)cc1 [Example 77, (2S,4R)—N-([4-[4-(difluoromethoxy)phenyl]-5-fluoropyridin-2-yl]methyl)-4-fluoro-1-[(4-fluorobenzene)sulfonyl]pyrrolidine-2-carboxamide]
14 | N#Cc1ccc(-c2cnc(C(F)(F)F)nc2)cc1CNC(=O)[C@@H]1[C@@H](F)CCN1S(=O)(=O)c1ccc(F)cc1 [Example 38, (2R,3S)—N-([2-cyano-5-[2-(trifluoromethyl)pyrimidin-5-yl]phenyl]methyl)-3-fluoro-1-[(4-fluorobenzene)sulfonyl]pyrrolidine-2-carboxamide]
7 | O=C(NCc1cc(-c2ccc(C(F)(F)F)cn2)ccn1)[C@@H]1[C@@H](F)CCN1S(=O)(=O)c1ccc(F)cc1 [Example 72, (2R,3S)-3-fluoro-1-(4-fluorophenyl)sulfonyl-N-[[4-[5-(trifluoromethyl)-2-pyridyl]-2-pyridyl]methyl]pyrrolidine-2-carboxamide]
7 | O=C(NCc1cc(-c2ccc(OC(F)(F)F)cc2)ncn1)[C@@H]1[C@@H](F)CCN1S(=O)(=O)c1ccc(F)cc1 [Example 111, (2R,3S)-3-fluoro-1-(4-fluorophenyl)sulfonyl-N-[[6-[4-(trifluoromethoxy)phenyl]pyrimidin-4-yl]methyl]pyrrolidine-2-carboxamide]
72 | O=C(NCc1cc(-c2ccc(OC(F)(F)F)c(F)c2)ncn1)[C@@H]1C[C@@H](F)CN1S(=O)(=O)c1ccc(F)cc1 [Example 104, (2S,4R)-4-fluoro-N-([6-[3-fluoro-4-(trifluoromethoxy)phenyl]pyrimidin-4-yl]methyl)-1-[(4-fluorobenzene)sulfonyl]pyrrolidine-2-carboxamide]
14 | O=C(NCc1cc(Cl)nc(-c2ccc(C(F)(F)F)nc2)c1)[C@@H]1C[C@@H](F)CN1S(=O)(=O)c1ccc(F)cc1 [Example 84, (2S,4R)—N-[[2-chloro-6-[6-(trifluoromethyl)-3-pyridyl]-4-pyridyl]methyl]-4-fluoro-1-(4-fluorophenyl)sulfonyl-pyrrolidine-2-carboxamide]
11 | O=C(NCc1cc(-c2cnc(C(F)(F)F)nc2)ccc1F)[C@@H]1C[C@@H](F)CN1S(=O)(=O)c1ccc(F)cc1 [Example 56, (2S,4R)-4-fluoro-N-(2-fluoro-5-(2-(trifluoromethyl)pyrimidin-5-yl)benzyl)-1-((4-fluorophenyl)sulfonyl)pyrrolidine-2-carboxamide]
40 | (2S,4R)-4-fluoro-N-[[5-fluoro-4-[5-fluoro-6-(trifluoromethyl)-3-pyridyl]-2-pyridyl]methyl]-1-(4-fluorophenyl)sulfonyl-pyrrolidine-2-carboxamide [Example 65]
13 | N#Cc1cnc(-c2ccc(C(F)(F)F)nc2)cc1CNC(=O)[C@@H]1[C@@H](F)CCN1S(=O)(=O)c1ccc(F)cc1 [Example 166, (2R,3S)—N-([5-cyano-2-[6-(trifluoromethyl)pyridin-3-yl]pyridin-4-yl]methyl)-3-fluoro-1-[(4-fluorobenzene)sulfonyl]pyrrolidine-2-carboxamide]
381 | CC1(C)CC[C@@H](C(=O)NCc2cc(-c3ccc(C(F)(F)F)nc3)ncn2)N1S(=O)(=O)c1ccc(F)cc1 [Example 194, (2S)-1-(4-fluorophenyl)sulfonyl-5,5-dimethyl-N-[[6-[6-(trifluoromethyl)-3-pyridyl]pyrimidin-4-yl]methyl]pyrrolidine-2-carboxamide]
15 | O=C(NCc1cn(-c2ccc(C(F)(F)F)cc2)nc1Cl)[C@@H]1CCN1S(=O)(=O)c1ccc(F)cc1 [Example 197, (2S)—N-([3-chloro-1-[4-(trifluoromethyl)phenyl]-1H-pyrazol-4-yl]methyl)-1-[(4-fluorobenzene)sulfonyl]azetidine-2-carboxamide]
134 | O=C(NCc1cc(-c2ccc(C3CC3)cc2)ncn1)[C@@H]1C[C@@H](F)CN1S(=O)(=O)c1ccc(F)cc1 [Example 155, (2S,4R)—N-((6-(4-cyclopropylphenyl)pyrimidin-4-yl)methyl)-4-fluoro-1-(4-fluorophenylsulfonyl)pyrrolidine-2-carboxamide]
156 | O=C(NCc1cc(-c2ccc(C(F)(F)F)nc2)ncn1)[C@@H]1C[C@H]2C[C@H]2N1S(=O)(=O)c1ccc(F)cc1 [Example 123, (1R,3S,5R)-2-(4-fluorophenyl)sulfonyl-N-[[6-[6-(trifluoromethyl)-3-pyridyl]pyrimidin-4-yl]methyl]-2-azabicyclo[3.1.0]hexane-3-carboxamide]
44 | O=C(NCc1cc(-c2ccc(C(F)(F)F)nc2)ncn1)[C@@H]1CC2(CC2)CN1S(=O)(=O)c1ccc(F)cc1 [Example 80]
21 | O=C(NCc1cc(-c2ccc(OC(F)(F)F)cc2)ncn1)[C@@H]1C[C@@H](F)CN1S(=O)(=O)c1ccc(F)cc1 [Example 145, (2S,4R)-4-fluoro-1-(4-fluorophenylsulfonyl)-N-((6-(4-(trifluoromethoxy)phenyl)pyrimidin-4-yl)methyl)pyrrolidine-2-carboxamide]
175 | Nc1nc(C(F)(F)F)ccc1-c1cc(CNC(=O)[C@@H]2C[C@@H](F)CN2S(=O)(=O)c2ccc(F)cc2)ccn1 [Example 178, (2S,4R)—N-[[2-[2-amino-6-(trifluoromethyl)-3-pyridyl]-4-pyridyl]methyl]-4-fluoro-1-(4-fluorophenyl)sulfonyl-pyrrolidine-2-carboxamide]
333 | C[C@@H]1C[C@@H](C(=O)NCc2cc(-c3ccc(C(F)(F)F)nc3)ncn2)N1S(=O)(=O)c1ccc(F)cc1 [Example 200, (2S,4R)-1-[(4-fluorobenzene)sulfonyl]-4-methyl-N-([6-[6-(trifluoromethyl)pyridin-3-yl]pyrimidin-4-yl]methyl)azetidine-2-carboxamide]
189 | O=C(NCc1cc(-c2cnc(C(F)(F)F)cn2)ccn1)[C@@H]1C[C@@H](F)CN1S(=O)(=O)c1ccc(F)cc1 [Example 82, (2S,4R)-4-fluoro-1-(4-fluorophenyl)sulfonyl-N-[[4-[5-(trifluoromethyl)pyrazin-2-yl]-2-pyridyl]methyl]pyrrolidine-2-carboxamide]
224 | O=C(NCc1ncc(F)c(-c2ccc(C(F)(F)F)nc2)c1F)[C@@H]1C[C@@H](F)CN1S(=O)(=O)c1ccc(F)cc1 [Example 117, (2S,4R)—N-([3,5-difluoro-4-[6-(trifluoromethyl)pyridin-3-yl]pyridin-2-yl]methyl)-4-fluoro-1-[(4-fluorobenzene)sulfonyl]pyrrolidine-2-carboxamide]
449 | O=C(NCc1cc(-c2ccc(C(F)(F)F)cc2)ncn1)[C@@H]1C[C@@H]2COC[C@@H]2N1S(=O)(=O)c1ccc(F)cc1 (single isomer, unassigned) [Example 100]
26 | COc1nn(-c2ccc(C(F)(F)F)nc2)cc1CNC(=O)[C@@H]1[C@@H](F)CCN1S(=O)(=O)c1ccc(F)cc1 [Example 103, (2R,3S)-3-fluoro-1-(4-fluorophenylsulfonyl)-N-((3-methoxy-1-(6-(trifluoromethyl)pyridin-3-yl)-1H-pyrazol-4-yl)methyl)pyrrolidine-2-carboxamide]
59 | C[C@@]1(C(=O)NCc2cc(-c3ccc(C(F)(F)F)nc3)ncn2)CCN1S(=O)(=O)c1ccc(F)cc1 [Example 198, (S)-1-(4-fluorophenylsulfonyl)-2-methyl-N-((6-(6-(trifluoromethyl)pyridin-3-yl)pyrimidin-4-yl)methyl)azetidine-2-carboxamide]
9 | O=C(NCc1cc(-c2ccc(C(F)(F)F)cn2)cc(F)n1)[C@@H]1C[C@@H](F)CN1S(=O)(=O)c1ccc(F)cc1 [Example 49, (2S,4R)-4-fluoro-N-([6-fluoro-4-[5-(trifluoromethyl)pyridin-2-yl]pyridin-2-yl]methyl)-1-[(4-fluorobenzene)sulfonyl]pyrrolidine-2-carboxamide]

Molecule | IC50 [nM]
C[C@H]1[C@H](F)C[C@@H](C(=O)NCc2ccnc(-c3cnc(C(F)(F)F)nc3)c2)N1S(=O)(=O)c1ccc(F)cc1 [Example 193, (2S,4R,5S)-4-fluoro-1-[(4-fluorobenzene)sulfonyl]-5-methyl-N-([2-[2-(trifluoromethyl)pyrimidin-5-yl]pyridin-4-yl]methyl)pyrrolidine-2-carboxamide] | 15
